The text below walks through data of BindingDB's records for doi:10.1021/acs.jmedchem.6b00330 (University of Bonn, 2016).

A short description of series [1]: Inhibition of c-terminal GFP-tagged human ABCG2 expressed in MDCK2 cells assessed as enhancement of Hoechst 33342-induced cytotoxicity incubated for 72 hrs by MTT assay. (Tetrazolium assays rely on reduction of a dye to a coloured formazan, in cell work by metabolically active cells.)
The nature of series [2]: Inhibition of c-terminal GFP-tagged human ABCG2 expressed in MDCK2 cells assessed as enhancement of SN-38-induced cytotoxicity incubated for 72 hrs by MTT assay.
In series [3] the target is T1, Broad substrate specificity ATP-binding cassette transporter ABCG2 (Homo sapiens, UniProt Q9UNQ0).
T1 sequence (Q9UNQ0 whole entry): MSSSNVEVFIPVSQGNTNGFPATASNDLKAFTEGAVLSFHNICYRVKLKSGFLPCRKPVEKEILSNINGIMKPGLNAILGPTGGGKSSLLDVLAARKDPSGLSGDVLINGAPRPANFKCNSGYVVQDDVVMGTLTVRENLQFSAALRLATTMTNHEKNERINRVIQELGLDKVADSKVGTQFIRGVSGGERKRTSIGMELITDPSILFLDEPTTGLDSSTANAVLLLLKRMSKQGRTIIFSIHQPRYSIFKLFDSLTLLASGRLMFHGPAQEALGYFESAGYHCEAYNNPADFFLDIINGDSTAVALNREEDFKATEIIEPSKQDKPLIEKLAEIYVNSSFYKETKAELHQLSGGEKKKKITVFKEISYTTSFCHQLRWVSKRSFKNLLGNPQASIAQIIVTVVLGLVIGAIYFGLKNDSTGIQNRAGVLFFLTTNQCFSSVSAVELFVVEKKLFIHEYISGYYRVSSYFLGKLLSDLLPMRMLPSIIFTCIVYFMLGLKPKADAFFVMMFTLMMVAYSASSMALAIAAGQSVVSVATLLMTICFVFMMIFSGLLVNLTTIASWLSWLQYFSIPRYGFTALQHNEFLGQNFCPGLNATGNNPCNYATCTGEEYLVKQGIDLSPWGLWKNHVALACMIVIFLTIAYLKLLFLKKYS
The series is described as follows: Inhibition of c-terminal GFP-tagged human ABCG2 expressed in MDCK2 cells assessed as enhancement of SN-38-induced cytotoxicity incubated for 72 hrs by MTT assay.

The target of series [4] is T1, Broad substrate specificity ATP-binding cassette transporter ABCG2. Description: Inhibition of c-terminal GFP-tagged human ABCG2 expressed in MDCK2 cells assessed as enhancement of Hoechst 33342-induced cytotoxicity incubated for 72 hrs by MTT assay.

One may read the EC50 as the midpoint of the concentration-response curve.

For the compound `N#Cc1ccc(Nc2nc(-c3ccccc3)nc3ccccc23)cc1`, the EC50 came out at 53 nM in series [1] and 41 nM in series [2].

As to `O=[N+]([O-])c1cc(Nc2nc(-c3ccccc3)nc3ccccc23)ccc1O`, the EC50 in series [3] is 120 nM; in series [4], 130 nM.
